Results on 15 compounds are retold here after US20230329236A1, “HERBICIDAL PYRIMIDINE DERIVATIVES” (MoA Technology Limited, priority 2020, published 2023).

Usually pest or weed control stands for how far the test organism was held down. Low values mean weak suppression, high ones strong suppression.

The first test deals with Lolium multiflorum (LOLMU). The experiment in a line: Post-emergence glasshouse test, visual injury, LOLMU. Type of test: in vivo. The conditions noted are these: 336 h, Table 3, post-emergence, 500 g/ha, 14±1 days post application. The method, then:
(§1) Seeds of a variety of test species are grown in a sandy loam soil mixture, Lolium multiflorum (LOLMU), Amaranthus retroflexus (AMARE), Echinochloa crus-gaffi (ECHCG), Veronica persica (VERPE), Glycine max (GLXMA), Oryza sativa (ORYSA), Zea mays (ZEAMX), spring wheat (TRZAS), Ipomoea hederacea (IPOHE), Ipomoea purpurea (PHBPU), Stellaria media (STEME), Solanum nigrum (SOLNI), Digitaria sanguinalis (DIGSA), Setaria italica (SETIT), Alopecurus myosuroides (ALOMY) and Avena fatua (AVEFA).
(§2) After sowing, at growth stage BBCH 12-14 (post-emergence), the plants are sprayed with an aqueous spray solution derived from the formulation of the technical active ingredient in acetone/water (50:50) solution containing 0.5% Tween 20 (polyoxyethlyene sorbitan monolaureate, CAS RN 9005-64-5). The test compounds are applied at the required concentration of active ingredient in g/ha. The test plants are then grown in a glasshouse under controlled environmental conditions and watered regularly as required. After 14±1 days post application (for post-emergence test), the test is evaluated by assessing the percentage damage caused to the plants in comparison with the untreated plots. The biological activities for post-emergence testing are shown below (Table 3 and Table 4) as a % visual injury.
For the compound `Cc1cc(-c2cnc(N)nc2-c2ccc(C)o2)on1` [Compound 2, 5-(3-methyl-1,2-oxazol-5-yl)-4-(5-methylfuran-2-yl)pyrimidin-2-amine], the pest or weed control at 500 g/ha turned out to be 40%.
Still for that read-out and setting: next, `COc1ccc(CNc2ncc(-c3onc(C)c3C)c(-c3ccco3)n2)cc1` [Compound 77]: 70%.
Still for that read-out and setting: next, `C=COCCCNc1ncc(-c2cc(C)no2)c(C(C)C)n1` [Compound 35]: 0%; `Cc1cc(-c2cnc(NCCN3CCCC3=O)nc2C(C)C)on1` [Compound 42]: 10%; `Cc1cc(-c2cnc(NC3CC3)nc2C(C)C)on1` [Compound 38]: 50%.
The same measure, in the same setting: next, `COc1ccc(CCNc2ncc(-c3cc(C)no3)c(C(C)C)n2)cc1OC` [Compound 34]: 30%; `COCCNc1ncc(-c2cc(C)no2)c(-c2ccncc2)n1` [Compound 66]: 60%; `Cc1cc(-c2cnc(NC(C)C)nc2C(C)(C)C)on1` [Compound 73]: 40%.
Compound `Cc1cc(-c2cnc(NCc3ccncc3)nc2-c2ccc(C)o2)on1` [Compound 21] displayed a pest or weed control at 500 g/ha of 0%.
Still for that read-out and setting: as for `Cc1cc(-c2cnc(N3CCC(C(N)=O)CC3)nc2C2CC2)on1` [Compound 64], the figure is 30%.
Same read-out and setting: next, `Cc1cc(-c2cnc(NCc3ccccn3)nc2C2CC2)on1` [Compound 67]: 20%; `Cc1cc(-c2cnc(N3CCCCC3)nc2C(C)(C)C)on1` [Compound 48]: 70%; `Cc1cc(-c2cnc(NCc3ccc4c(c3)OCO4)nc2C(C)(C)C)on1` [Compound 54]: 5%.
The compound `Cc1cc(-c2cnc(NCCc3c(C)noc3C)nc2C(C)C)on1` [Compound 62] gave a pest or weed control at 500 g/ha of 40%.

The same test, now with this note: 336 h, Table 3, post-emergence, 1000 g/ha, 14±1 days post application.
With `Cc1cc(-c2cnc(NCc3ccncc3)nc2C(C)C)on1` [Compound 18], the pest or weed control at 1000 g/ha worked out at 60%.

In the next test the test system is Amaranthus retroflexus (AMARE). Nature of the test: Post-emergence glasshouse test, visual injury, AMARE. It is filed as in vivo. The conditions noted are these: 336 h, Table 3, post-emergence, 500 g/ha, 14±1 days post application. Here is the method: as §1, §2
For `Cc1cc(-c2cnc(N)nc2-c2ccc(C)o2)on1` [Compound 2, 5-(3-methyl-1,2-oxazol-5-yl)-4-(5-methylfuran-2-yl)pyrimidin-2-amine], the pest or weed control at 500 g/ha came to 30%.
Compound `COc1ccc(CNc2ncc(-c3onc(C)c3C)c(-c3ccco3)n2)cc1` [Compound 77] showed a pest or weed control at 500 g/ha of 70%.
Still for that read-out and setting: as for `C=COCCCNc1ncc(-c2cc(C)no2)c(C(C)C)n1` [Compound 35], the figure is 0%; as for `Cc1cc(-c2cnc(NCCN3CCCC3=O)nc2C(C)C)on1` [Compound 42], 70%.
The same measure, in the same setting: as for `Cc1cc(-c2cnc(NC3CC3)nc2C(C)C)on1` [Compound 38], the figure is 100%.
In turn, `COc1ccc(CCNc2ncc(-c3cc(C)no3)c(C(C)C)n2)cc1OC` [Compound 34] registered a pest or weed control at 500 g/ha of 70%.
On the same count and under the same terms, next, `COCCNc1ncc(-c2cc(C)no2)c(-c2ccncc2)n1` [Compound 66]: 70%; `Cc1cc(-c2cnc(NC(C)C)nc2C(C)(C)C)on1` [Compound 73]: 70%.
Still for that read-out and setting: next, `Cc1cc(-c2cnc(NCc3ccncc3)nc2-c2ccc(C)o2)on1` [Compound 21]: 50%.
On the same count and under the same terms, as for `Cc1cc(-c2cnc(N3CCC(C(N)=O)CC3)nc2C2CC2)on1` [Compound 64], the figure is 60%.
The compound `Cc1cc(-c2cnc(NCc3ccccn3)nc2C2CC2)on1` [Compound 67] yielded a pest or weed control at 500 g/ha of 60%.
Still for that read-out and setting: as for `Cc1cc(-c2cnc(N3CCCCC3)nc2C(C)(C)C)on1` [Compound 48], the figure is 20%; as for `Cc1cc(-c2cnc(NCc3ccc4c(c3)OCO4)nc2C(C)(C)C)on1` [Compound 54], 40%; as for `Cc1cc(-c2cnc(NCCc3c(C)noc3C)nc2C(C)C)on1` [Compound 62], 70%.

The same test, now with this note: 336 h, Table 3, post-emergence, 1000 g/ha, 14±1 days post application.
As to `Cc1cc(-c2cnc(NCc3ccncc3)nc2C(C)C)on1` [Compound 18], the pest or weed control at 1000 g/ha stood at 90%.

Another test has as its system Echinochloa crus-gaffi (ECHCG). Nature of the test: Post-emergence glasshouse test, visual injury, ECHCG. It is filed as in vivo, Echinochloa crus-galli. As to conditions: 336 h, Table 3, post-emergence, 500 g/ha, 14±1 days post application. The method, then: as §1, §2
`Cc1cc(-c2cnc(N)nc2-c2ccc(C)o2)on1` [Compound 2, 5-(3-methyl-1,2-oxazol-5-yl)-4-(5-methylfuran-2-yl)pyrimidin-2-amine]: the pest or weed control at 500 g/ha is 10%.
Still for that read-out and setting: next, `COc1ccc(CNc2ncc(-c3onc(C)c3C)c(-c3ccco3)n2)cc1` [Compound 77]: 80%.
The same measure, in the same setting: as for `C=COCCCNc1ncc(-c2cc(C)no2)c(C(C)C)n1` [Compound 35], the figure is 60%; as for `Cc1cc(-c2cnc(NCCN3CCCC3=O)nc2C(C)C)on1` [Compound 42], 50%; as for `Cc1cc(-c2cnc(NC3CC3)nc2C(C)C)on1` [Compound 38], 60%.
Same read-out and setting: next, `COc1ccc(CCNc2ncc(-c3cc(C)no3)c(C(C)C)n2)cc1OC` [Compound 34]: 80%; `COCCNc1ncc(-c2cc(C)no2)c(-c2ccncc2)n1` [Compound 66]: 20%.
For the compound `Cc1cc(-c2cnc(NC(C)C)nc2C(C)(C)C)on1` [Compound 73], the pest or weed control at 500 g/ha was 70%.
Compound `Cc1cc(-c2cnc(NCc3ccncc3)nc2-c2ccc(C)o2)on1` [Compound 21] yielded a pest or weed control at 500 g/ha of 20%.
Same read-out and setting: as for `Cc1cc(-c2cnc(N3CCC(C(N)=O)CC3)nc2C2CC2)on1` [Compound 64], the figure is 60%.
Same read-out and setting: next, `Cc1cc(-c2cnc(NCc3ccccn3)nc2C2CC2)on1` [Compound 67]: 40%; `Cc1cc(-c2cnc(N3CCCCC3)nc2C(C)(C)C)on1` [Compound 48]: 10%.
Same read-out and setting: next, `Cc1cc(-c2cnc(NCc3ccc4c(c3)OCO4)nc2C(C)(C)C)on1` [Compound 54]: 40%.
`Cc1cc(-c2cnc(NCCc3c(C)noc3C)nc2C(C)C)on1` [Compound 62] registered a pest or weed control at 500 g/ha of 50%.

The same test, now with this note: 336 h, Table 3, post-emergence, 1000 g/ha, 14±1 days post application.
`Cc1cc(-c2cnc(NCc3ccncc3)nc2C(C)C)on1` [Compound 18] came in with a pest or weed control at 1000 g/ha of 30%.

The next test deals with Veronica persica (VERPE). Nature of the test: Post-emergence glasshouse test, visual injury, VERPE. As to conditions: 336 h, Table 3, post-emergence, 500 g/ha, 14±1 days post application. Type of test: in vivo. Here is the method: as §1, §2
`Cc1cc(-c2cnc(N)nc2-c2ccc(C)o2)on1` [Compound 2, 5-(3-methyl-1,2-oxazol-5-yl)-4-(5-methylfuran-2-yl)pyrimidin-2-amine] gave a pest or weed control at 500 g/ha of 0%.
`COc1ccc(CNc2ncc(-c3onc(C)c3C)c(-c3ccco3)n2)cc1` [Compound 77] returned a pest or weed control at 500 g/ha of 70%.
`C=COCCCNc1ncc(-c2cc(C)no2)c(C(C)C)n1` [Compound 35] had a pest or weed control at 500 g/ha of 98%.
Same read-out and setting: next, `Cc1cc(-c2cnc(NCCN3CCCC3=O)nc2C(C)C)on1` [Compound 42]: 60%; `Cc1cc(-c2cnc(NC3CC3)nc2C(C)C)on1` [Compound 38]: 100%; `COc1ccc(CCNc2ncc(-c3cc(C)no3)c(C(C)C)n2)cc1OC` [Compound 34]: 100%.
Still for that read-out and setting: next, `COCCNc1ncc(-c2cc(C)no2)c(-c2ccncc2)n1` [Compound 66]: 70%; `Cc1cc(-c2cnc(NC(C)C)nc2C(C)(C)C)on1` [Compound 73]: 0%; `Cc1cc(-c2cnc(NCc3ccncc3)nc2-c2ccc(C)o2)on1` [Compound 21]: 90%.
Regarding `Cc1cc(-c2cnc(N3CCC(C(N)=O)CC3)nc2C2CC2)on1` [Compound 64], the pest or weed control at 500 g/ha turned out to be 0%.
`Cc1cc(-c2cnc(NCc3ccccn3)nc2C2CC2)on1` [Compound 67] displayed a pest or weed control at 500 g/ha of 50%.
Regarding `Cc1cc(-c2cnc(N3CCCCC3)nc2C(C)(C)C)on1` [Compound 48], the pest or weed control at 500 g/ha was 0%.
Same read-out and setting: next, `Cc1cc(-c2cnc(NCc3ccc4c(c3)OCO4)nc2C(C)(C)C)on1` [Compound 54]: 99%; `Cc1cc(-c2cnc(NCCc3c(C)noc3C)nc2C(C)C)on1` [Compound 62]: 70%.

Staying with this test, now noted: 336 h, Table 3, post-emergence, 1000 g/ha, 14±1 days post application.
As to `Cc1cc(-c2cnc(NCc3ccncc3)nc2C(C)C)on1` [Compound 18], the pest or weed control at 1000 g/ha was 99%.
